Laboratory results published in US20070148723A1, “METHOD AND APPARATUS FOR DETECTING PRESENCE OF TOXIC MATERIAL WITHIN SAMPLE” (SAMSUNG ELECTRONICS CO., LTD., priority 2005, published 2007).

How the values were obtained:
[1] = test system: electron transfer system of sub-mitochondrial particles; format: biochemical; settings: for cathode peak current at 1.019 V relative to a sample of 0 wt %: 2.5 wt %, FIG. 4 / FIG. 5
From the text: FIGS. 1A is a diagram of an exemplary embodiment of a current measuring device; and FIG. 1B is a schematic diagram of an exemplary embodiment of a current measuring apparatus. Referring to FIG. 1A, a reaction vessel 10 includes an Ag/AgCl standard electrode 20 (RE in FIG. 1B), a platinum working electrode 30 (WE in FIG. 1B), and a platinum counter electrode 40 (CE in FIG. 1B). The standard electrode 20, the working electrode 30, and the counter electrode 40 are connected to a voltmeter 50 (e.g., a Perkin-Elmer VMP multichannel potentiostat; V in FIG. 1B). An X/Y plotter 60 is connected to the voltmeter 50. 0.5× PBS including 0.5 mg/ml of SMP (submitochondrial particle) (Havard Bioscience), 6 mM of NADH, and 50 mM of KCl was allowed to react at ambient temperature for 1 hour. […] The cyclic voltammogram was measured with a scan speed of 50 mV/sec CV at a sweep range of 0.85 to 1.35 V. […] FIG. 3 is a graph showing the cyclic voltammogram of 2.5 mM Ru(bpy)3^2+ in phosphate-buffered saline (PBS). Then, ethanol samples having final concentrations (on a weight basis) of 0 wt %, 2.5 wt %, 5 wt %, and 10 wt %, or a sample having 2.5 wt % of sorbitol was added to 0.5× PBS including 0.5 mg/ml of SMP, (submitochondrial particle), 6 mM of NADH, and 50 mM of KCl to prepare 7 ml of a final reaction solution and was allowed to react for 1 hour at ambient temperature. Next, absorbance of the final reaction solution was measured at 340 nanometers (nm) using a spectrophotometer and the concentration of NADH was measured using an optical method. […] The cyclic voltammogram was measured with a scan speed of 50 mV/sec CV at a sweep range of 0.85 to 1.35V.

[2] = test system: electron transfer system of sub-mitochondrial particles; test: Optical method: NADH concentration by absorbance at 340 nm of SMP/NADH reaction solution; format: biochemical; settings: 2.5 wt %
Description: Then, ethanol samples having final concentrations (on a weight basis) of 0 wt %, 2.5 wt %, 5 wt %, and 10 wt %, or a sample having 2.5 wt % of sorbitol was added to 0.5× PBS including 0.5 mg/ml of SMP, (submitochondrial particle), 6 mM of NADH, and 50 mM of KCl to prepare 7 ml of a final reaction solution and was allowed to react for 1 hour at ambient temperature. Next, absorbance of the final reaction solution was measured at 340 nanometers (nm) using a spectrophotometer and the concentration of NADH was measured using an optical method. […] The cyclic voltammogram was measured with a scan speed of 50 mV/sec CV at a sweep range of 0.85 to 1.35V.

[3] = 0.5 mg/ml SMP, 6 mM NADH, 1 hour at ambient temperature

Row | SMILES | effect on electron transfer reaction of sub-mitochondrial particles (toxicity) [1] | cathode peak current at 1.019 V in a cyclic voltammogram as concentration increases ([1]; 0, 2.5, 5 and 10 wt %, 0.5 mg/ml SMP, 6 mM NADH, 1 hour at ambient temperature, FIG. 4) | cathode peak current at 1.019 V relative to a sample of 0 wt % [1, 3] | toxicity by optical measurement ([2]; conclusion from absorbance at 340 nm) | absorbance at 340 nm compared to a sample of 0 wt % ([2]; spectrophotometer, data not illustrated)
1 | CCO [ethanol] | obstructs the electron transfer reaction of sub-mitochondrial particles | moves towards in less negative (i.e., more positive, cathodic) direction | moves toward a less negative value |  | 
2 | OC[C@@H](O)[C@@H](O)[C@H](O)[C@@H](O)CO [sorbitol] | does not include toxic material |  | moves towards a more negative value | no toxicity | no changes
